Test results published in patent publication US11292796B2 (SIGNAL PHARMACEUTICALS, LLC, priority 2008, dated 2022).

The compounds below were run against T1, mTOR (Homo sapiens, UniProt P42345) (assay: mTOR HTR-FRET assay). Details: read-out: Act. Level (IC50 in mTor HTR-FRET assay).
T1 construct: purchased Invitrogen PR8683A
Assay type: biochemical
In short: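 Test compounds, taken from 10 mM DMSO stocks and diluted, were mixed with mTOR enzyme (0.200 μg/mL) in Tris buffer pH 7.4 with 100 mM NaCl, 0.1% Tween-20 and 1 mM DTT. ATP/substrate addition initiated the reaction, alongside compound-free controls.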

T1 sequence (P42345 1360-2549 limits assumed): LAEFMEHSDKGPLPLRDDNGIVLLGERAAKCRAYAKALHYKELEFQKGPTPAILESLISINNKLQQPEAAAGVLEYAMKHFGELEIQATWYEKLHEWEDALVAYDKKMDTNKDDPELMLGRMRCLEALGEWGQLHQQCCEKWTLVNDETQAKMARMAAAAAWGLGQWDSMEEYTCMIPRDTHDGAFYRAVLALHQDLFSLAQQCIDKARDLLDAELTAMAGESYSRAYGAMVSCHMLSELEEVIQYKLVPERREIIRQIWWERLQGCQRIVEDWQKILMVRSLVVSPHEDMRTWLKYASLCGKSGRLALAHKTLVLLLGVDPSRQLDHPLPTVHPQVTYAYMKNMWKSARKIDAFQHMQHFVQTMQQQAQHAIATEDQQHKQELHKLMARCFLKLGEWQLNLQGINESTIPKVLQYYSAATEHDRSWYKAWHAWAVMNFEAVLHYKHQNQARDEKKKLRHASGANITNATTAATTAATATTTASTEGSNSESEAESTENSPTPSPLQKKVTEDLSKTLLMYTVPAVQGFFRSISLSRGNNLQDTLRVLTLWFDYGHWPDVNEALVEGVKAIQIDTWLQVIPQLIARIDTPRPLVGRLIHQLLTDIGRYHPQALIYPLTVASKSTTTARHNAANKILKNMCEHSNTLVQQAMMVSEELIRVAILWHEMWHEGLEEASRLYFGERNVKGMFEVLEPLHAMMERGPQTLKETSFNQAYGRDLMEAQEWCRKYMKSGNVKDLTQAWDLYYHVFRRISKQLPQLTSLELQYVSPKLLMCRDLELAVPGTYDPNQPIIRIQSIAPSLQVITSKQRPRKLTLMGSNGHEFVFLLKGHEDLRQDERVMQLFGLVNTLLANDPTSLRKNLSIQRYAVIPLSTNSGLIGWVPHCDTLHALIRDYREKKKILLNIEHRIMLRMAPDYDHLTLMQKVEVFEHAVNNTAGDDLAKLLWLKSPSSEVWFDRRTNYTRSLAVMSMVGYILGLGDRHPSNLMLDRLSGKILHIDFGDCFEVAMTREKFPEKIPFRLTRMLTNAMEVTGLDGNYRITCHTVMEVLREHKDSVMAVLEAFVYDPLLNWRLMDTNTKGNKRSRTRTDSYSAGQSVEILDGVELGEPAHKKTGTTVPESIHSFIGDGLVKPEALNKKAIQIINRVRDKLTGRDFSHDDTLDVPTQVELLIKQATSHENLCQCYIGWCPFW

Compound | IC50
CO[C@H]1CC[C@H](N2C(=O)CNc3ncc(-c4cnc(-c5nc[nH]n5)cc4C)nc32)CC1 [Example 202, 1-(trans-4-methoxycyclohexyl)-7-(4-methyl-6-(1H-1,2,4-triazol-3-yl)pyridin-3-yl)-3,4-dihydropyrazino[2,3-b]pyrazin-2(1H)-one] | 0.005 to 250 nM
Cc1nc(-c2nnc[nH]2)ccc1-c1cnc2c(n1)N(CC1CCOCC1)CC(=O)N2 [Example 93, 6-(2-methyl-6-(4H-1,2,4-triazol-3-yl)pyridin-3-yl)-4-((tetrahydro-2H-pyran-4-yl)methyl)-3,4-dihydropyrazino[2,3-b]pyrazin-2(1H)-one] | 250 to 500 nM
Cc1c(-c2cnc3c(n2)N(CCC2CCOCC2)C(=O)CN3)ccc(-c2nc[nH]n2)c1F [Example 248, 7-(3-fluoro-2-methyl-4-(1H-1,2,4-triazol-3-yl)phenyl)-1-(2-(tetrahydro-2H-pyran-4-yl)ethyl)-3,4-dihydropyrazino[2,3-b]pyrazin-2(1H)-one] | 0.005 to 250 nM
COCCN1CC(=O)Nc2ncc(-c3ccc(-c4nc[nH]n4)nc3)nc21 [Example 16] | 0.005 to 250 nM
CO[C@H]1CC[C@H](CN2C(=O)CNc3ncc(-c4ccc(-c5nc[nH]n5)nc4)nc32)CC1 [Example 158, 7-(6-(1H-1,2,4-triazol-3-yl)pyridin-3-yl)-1-((trans-4-methoxycyclohexyl)methyl)-3,4-dihydropyrazino[2,3-b]pyrazin-2(1H)-one] | 0.005 to 250 nM
CCN1CC(=O)Nc2ncc(-c3ccc(-c4nnc[nH]4)cc3)nc21 [Example 141, 6-(4-(4H-1,2,4-triazol-3-yl)phenyl)-4-ethyl-3,4-dihydropyrazino[2,3-b]pyrazin-2(1H)-one] | 250 to 500 nM
COCCN1C(=O)CNc2ncc(-c3cnc4[nH]ccc4c3)nc21 [Example 192, 1-(2-methoxyethyl)-7-(1H-pyrrolo[2,3-b]pyridin-5-yl)-3,4-dihydropyrazino[2,3-b]pyrazin-2(1H)-one] | 0.005 to 250 nM
Cc1cc(-c2nc[nH]n2)c(F)cc1-c1cnc2c(n1)N(C[C@H]1CC[C@H](O)CC1)C(=O)CN2 [Example 168, 7-(5-fluoro-2-methyl-4-(1H-1,2,4-triazol-3-yl)phenyl)-1-((trans-4-hydroxycyclohexyl)methyl)-3,4-dihydropyrazino[2,3-b]pyrazin-2(1H)-one] | 0.005 to 250 nM
O=C1CNc2ncc(-c3cccc4[nH]ccc34)nc2N1CCC1CCOCC1 [Example 167, 7-(1H-indol-4-yl)-1-(2-(tetrahydro-2H-pyran-4-yl)ethyl)-3,4-dihydropyrazino[2,3-b]pyrazin-2(1H)-one] | 250 to 500 nM
Cc1cc(-c2nnc[nH]2)ccc1-c1cnc2c(n1)N1CCCC1C(=O)N2 (stereo not shown) [Example 140, 8-(4-(4H-1,2,4-triazol-3-yl)-2-methylphenyl)-5,10,3a-trihydropyrazino[2,3-b]pyrrolidino[1,2-e]pyrazin-4-one] | 0.005 to 250 nM
O=C1Nc2ncc(-c3ccc(-c4nnc[nH]4)nc3)nc2N2CCOCC12 (stereo not shown) [Example 92, 9-(6-(4H-1,2,4-triazol-3-yl)-3-pyridyl)-6,11,4a-trihydromorpholino[4,3-e]pyrazino[2,3-b]pyrazin-5-one] | 500 to 1000 nM
Cc1nc(-c2nnc[nH]2)ccc1-c1cnc2c(n1)N(C)C(=O)CN2 [Example 197, 1-methyl-7-(2-methyl-6-(4H-1,2,4-triazol-3-yl)pyridin-3-yl)-3,4-dihydropyrazino[2,3-b]pyrazin-2(1H)-one] | 0.005 to 250 nM
Cc1cc(-c2nc[nH]n2)c(F)cc1-c1cnc2c(n1)N(C1CCOCC1)CC(=O)N2 [Example 24, 6-(5-fluoro-2-methyl-4-(1H-1,2,4-triazol-3-yl)phenyl)-4-(tetrahydro-2H-pyran-4-yl)-3,4-dihydropyrazino[2,3-b]pyrazin-2(1H)-one] | 0.005 to 250 nM
CO[C@H]1CC[C@H](N2C(=O)CNc3ncc(-c4ccc(C(C)(C)O)cc4)nc32)CC1 [Example 233, 7-(4-(2-hydroxypropan-2-yl)phenyl)-1-(trans-4-methoxycyclohexyl)-3,4-dihydropyrazino[2,3-b]pyrazin-2(1H)-one] | 0.005 to 250 nM
Cc1cc(-c2nnc[nH]2)ccc1-c1cnc2c(n1)N1CCNCC1C(=O)N2 (stereo not shown) [Example 97, 9-(4-(4H-1,2,4-triazol-3-yl)-2-methylphenyl)-6,11,4a-trihydropiperazino[1,2-e]pyrazino[2,3-b]pyrazin-5-one] | 0.005 to 250 nM
CC(C)(O)c1ccc(-c2cnc3c(n2)N(CC2CCCC2)C(=O)CN3)cn1 [Example 251, 1-(cyclopentylmethyl)-7-(6-(2-hydroxypropan-2-yl)pyridin-3-yl)-3,4-dihydropyrazino[2,3-b]pyrazin-2(1H)-one] | 500 to 1000 nM
CO[C@H]1CC[C@H](CN2CC(=O)Nc3ncc(-c4ccc(C(C)(C)O)nc4)nc32)C1 [Example 53, 6-(6-(2-hydroxypropan-2-yl)pyridin-3-yl)-4-(((1S,3S)-3-methoxycyclopentyl)methyl)-3,4-dihydropyrazino[2,3-b]pyrazin-2(1H)-one] | 0.005 to 250 nM
Cc1nc(-c2nnc[nH]2)ccc1-c1cnc2c(n1)N(CC1CCCC1)CC(=O)N2 [Example 99, 4-(cyclopentylmethyl)-6-(2-methyl-6-(4H-1,2,4-triazol-3-yl)pyridin-3-yl)-3,4-dihydropyrazino[2,3-b]pyrazin-2(1H)-one] | 0.005 to 250 nM
Cc1cc(-c2nc[nH]n2)c(F)cc1-c1cnc2c(n1)N(C1CCOCC1)C(=O)CN2 [Example 166, 7-(5-fluoro-2-methyl-4-(1H-1,2,4-triazol-3-yl)phenyl)-1-(tetrahydro-2H-pyran-4-yl)-3,4-dihydropyrazino[2,3-b]pyrazin-2(1H)-one] | 0.005 to 250 nM
CO[C@@H]1CC[C@H](N2C(=O)CNc3ncc(-c4ccc(C(C)(C)O)nc4)nc32)C1 [Example 209, 7-(6-(2-hydroxypropan-2-yl)pyridin-3-yl)-1-((1S,3R)-3-methoxycyclopentyl)-3,4-dihydropyrazino[2,3-b]pyrazin-2(1H)-one] | 0.005 to 250 nM
CCN1C(=O)CNc2ncc(-c3ccc4[nH]ccc4n3)nc21 [Example 154, 1-ethyl-7-(1H-pyrrolo[3,2-b]pyridin-5-yl)-3,4-dihydropyrazino[2,3-b]pyrazin-2(1H)-one] | 1000 to 10000 nM
Cc1cc(-c2nnc[nH]2)ccc1-c1cnc2c(n1)N(CC1CCOCC1)C1(CCC1)C(=O)N2 [Example 62, 7′-(2-methyl-4-(4H-1,2,4-triazol-3-yl)phenyl)-1′-((tetrahydro-2H-pyran-4-yl)methyl)-1′H-spiro[cyclobutane-1,2′-pyrazino[2,3-b]pyrazin]-3′(4′H)-one] | 0.005 to 250 nM
CO[C@H]1CC[C@@H](CN2CC(=O)Nc3ncc(-c4ccc(-c5nc[nH]n5)nc4)nc32)CC1 [Example 7] | 0.005 to 250 nM
CC(C)CN1CC(=O)Nc2ncc(-c3ccc(C(C)(C)O)nc3)nc21 [Example 106, 6-(6-(2-hydroxypropan-2-yl)pyridin-3-yl)-4-isobutyl-3,4-dihydropyrazino[2,3-b]pyrazin-2(1H)-one] | 500 to 1000 nM
COc1ccc(-c2cnc3c(n2)N(CCC2CCOCC2)C(=O)CN3)cn1 [Example 191, 7-(6-methoxypyridin-3-yl)-1-(2-(tetrahydro-2H-pyran-4-yl)ethyl)-3,4-dihydropyrazino[2,3-b]pyrazin-2(1H)-one] | 500 to 1000 nM
